From ChEMBL document CHEMBL1157682, “In silico prediction of human carboxylesterase-1 (hCES1) metabolism combining docking analyses and MD simulations” (Bioorg Med Chem, 2010)
Where “and” joins values, the source holds several entries; their conditions need not be identical. Equal entries are not always repeated.

Biological target: T1, Liver carboxylesterase 1 (Homo sapiens, UniProt P23141)
T1 sequence (P23141 whole entry): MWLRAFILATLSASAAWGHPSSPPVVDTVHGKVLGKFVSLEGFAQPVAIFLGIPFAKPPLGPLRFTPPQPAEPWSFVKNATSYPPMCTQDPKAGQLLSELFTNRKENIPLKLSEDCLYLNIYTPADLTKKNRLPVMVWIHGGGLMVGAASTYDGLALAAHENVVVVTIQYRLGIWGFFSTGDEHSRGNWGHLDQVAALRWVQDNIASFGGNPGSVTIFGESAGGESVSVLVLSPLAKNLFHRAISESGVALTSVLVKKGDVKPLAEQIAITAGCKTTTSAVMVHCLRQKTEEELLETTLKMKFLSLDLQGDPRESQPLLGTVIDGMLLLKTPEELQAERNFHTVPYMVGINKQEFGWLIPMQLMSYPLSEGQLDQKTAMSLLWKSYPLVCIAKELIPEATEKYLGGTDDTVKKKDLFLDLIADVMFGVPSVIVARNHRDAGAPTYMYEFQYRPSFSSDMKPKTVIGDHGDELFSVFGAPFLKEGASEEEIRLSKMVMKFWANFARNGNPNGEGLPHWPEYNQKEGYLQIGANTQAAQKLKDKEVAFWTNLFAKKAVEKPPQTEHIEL
Assay: Activity at human recombinant CES1 expressed in baculovirus-infected Spodoptera frugiperda Sf21 cells assessed as substrate hydrolysis by fluorescence assay

SMILES	pKm
CC(=O)Oc1ccc([N+](=O)[O-])cc1 [4-NITROPHENYL ACETATE]	3.44
CC1(C)[C@@H](C=C(Cl)Cl)[C@@H]1C(=O)OCc1cccc(Oc2ccccc2)c1 (stereo in doubt)	5.01
COC(=O)[C@H](c1ccccc1Cl)N1CCc2sccc2C1 [CLOPIDOGREL]	4.25
CC(=O)Oc1ccc2c3c1O[C@H]1[C@@H](OC(C)=O)C=C[C@H]4[C@@H](C2)N(C)CC[C@@]341 [DIACETYLMORPHINE]	2.2
CCOC(=O)[C@H](CCc1ccccc1)N[C@H]1CCc2ccccc2N(CC(=O)O)C1=O [BENAZEPRIL]	3.13
CCOC(=O)C1(c2ccccc2)CCN(C)CC1 [MEPERIDINE]	2.72
CCOC(=O)[C@H](CCc1ccccc1)N[C@H]1CS[C@H](c2cccs2)CN(CC(=O)O)C1=O [TEMOCAPRIL]	3.1
CC1(C)[C@H](C=C(Cl)Cl)[C@H]1C(=O)OCc1cccc(Oc2ccccc2)c1 (stereo in doubt)	5.01
CCc1c2c(nc3ccc(OC(=O)N4CCC(N5CCCCC5)CC4)cc13)-c1cc3c(c(=O)n1C2)COC(=O)[C@]3(O)CC [IRINOTECAN]	2.84
COC(=O)[C@@H](c1ccccc1)[C@@H]1CCCCN1	4.05
COc1ccc2cc(C(C#N)OC(=O)C3C(C)(C)C3(C)C)ccc2c1 (centres undefined)	5.82
CC(C)C[C@H](N)C(=O)OC[C@H]1O[C@@H](n2cc(F)c(=O)[nH]c2=O)C[C@@H]1O	3.01
CCOC(=O)C1=C[C@@H](OC(CC)CC)[C@H](NC(C)=O)[C@@H](N)C1 [OSELTAMIVIR]	3.75
COC(=O)[C@H](c1ccccc1)[C@H]1CCCCN1 [DEXMETHYLPHENIDATE]	4.36
COc1ccc2cc([C@@H](C#N)OC(=O)[C@H]3[C@@H](C=C(Cl)Cl)C3(C)C)ccc2c1	5.85
COc1ccc2cc([C@H](C#N)OC(=O)[C@@H]3[C@@H](C=C(Cl)Cl)C3(C)C)ccc2c1	5.77
COc1ccc2cc([C@H](C#N)OC(=O)[C@H]3[C@@H](C=C(Cl)Cl)C3(C)C)ccc2c1	5.82
CC1(C)[C@H](C(=O)OCc2cccc(Oc3ccccc3)c2)[C@@H]1C=C(Cl)Cl	4.62
CCCC(=O)Oc1ccc([N+](=O)[O-])cc1	3.89
CC(C)[C@H](N)C(=O)OC[C@H]1O[C@@H](n2cc(F)c(=O)[nH]c2=O)C[C@@H]1O	2.45

SMILES	pKm
CC(=O)Oc1ccc2c(C)cc(=O)oc2c1	3.1
CCCCCOC(=O)Nc1nc(=O)n([C@@H]2O[C@H](C)[C@@H](O)[C@H]2O)cc1F [CAPECITABINE]	2.89
COc1ccc(C(=O)N2CCCC2=O)cc1	4.07 and 4.02
COc1cc(C(=O)OCCCN2CCCN(CCCOC(=O)c3cc(OC)c(OC)c(OC)c3)CC2)cc(OC)c1OC [DILAZEP]	3.81
N[C@@H](Cc1ccccc1)C(=O)OC[C@H]1O[C@@H](n2cc(F)c(=O)[nH]c2=O)C[C@@H]1O	3.34
CCOC(=O)[C@H](CCc1ccccc1)N[C@@H](C)C(=O)N1Cc2ccccc2C[C@H]1C(=O)O	3.87
CC1(C)[C@H](C=C(Cl)Cl)[C@@H]1C(=O)OCc1cccc(Oc2ccccc2)c1	4.62
COc1ccc2cc([C@H](C#N)OC(=O)[C@@H]3[C@H](C=C(Cl)Cl)C3(C)C)ccc2c1	6.52
COc1ccc2cc([C@H](C#N)OC(=O)[C@H]3[C@H](C=C(Cl)Cl)C3(C)C)ccc2c1	5.72
N[C@@H](CC(=O)O)C(=O)OC[C@H]1O[C@@H](n2cc(F)c(=O)[nH]c2=O)C[C@@H]1O	2.52
CCOC(=O)[C@H](CCc1ccccc1)N[C@@H](C)C(=O)N1C(=O)N(C)C[C@H]1C(=O)O	3.54
COc1ccc2cc([C@@H](C#N)OC(=O)[C@H]3[C@H](C=C(Cl)Cl)C3(C)C)ccc2c1	5.62
CCOC(=O)[C@H](CCc1ccccc1)N[C@H]1CCCN2CCC[C@@H](C(=O)O)N2C1=O [CILAZAPRIL]	2.89
COC(=O)[C@H]1[C@@H](OC(=O)c2ccccc2)C[C@@H]2CC[C@H]1N2C [COCAINE]	3.92
COc1ccc2cc([C@@H](C#N)OC(=O)[C@@H]3[C@@H](C=C(Cl)Cl)C3(C)C)ccc2c1	6.15
CCOC(=O)[C@H](CCc1ccccc1)N[C@@H](C)C(=O)N(CC(=O)O)C1Cc2ccccc2C1	2.82
CC(C)=C[C@H]1[C@H](C(=O)OCc2coc(Cc3ccccc3)c2)C1(C)C (relative stereo)	5.17
CC(=O)O[C@H]1C=C[C@H]2[C@H]3Cc4ccc(O)c5c4[C@@]2(CCN3C)[C@H]1O5	2.08
CN(C)C(=O)COC(=O)Cc1ccc(OC(=O)c2ccc(NC(=N)N)cc2)cc1 [CAMOSTAT]	3.15
